Reference: the supplement of paper PMC11208160
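Further: IS621 bridge recombinase in Escherichia coli cells against a fixed T5 target plasmid.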

Assay: recombinant UMI read abundance after kanamycin selection (control-corrected) (log10(CPM+1)); higher = more efficient recombination; extreme values may be limits of the assay; sequences stand for … in AGTGCAGAGAAAATCGGCCAGTTTTCTCTGCCTGCAGTCCGCATGCCGTGGGACCCCTTGGGTTCTAACCTGTTGCCTAGATTTATGCAGCGGACTGCCTTTCTCCCAAAGTGATAAACCGG…AGGTTGGTTTCACT; site = the 11-nt donor
Procedure, shortened: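 Values, expressed as log10(CPM+1), derive from recombinant UMI counts converted to CPM, averaged across replicates and scaled by control-derived factors. Plating was with IPTG (0.07 mM) plus kanamycin or unselected, two replicates each. The screen pooled donor and donor-binding-loop pairs for the IS621 bridge recombinase in Escherichia coli.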
For “GCTAAGTCATGGACCGGTTTTCCCGGTAATCCGTATTTGTG (site GCTAAGTCTCA)”, the “recombinant UMI read abundance (log10)” value was 2.06. In the case of “GCTACAGCATGGACCGGTTTTCCCGGTAATCCGTATTTGCC (site GCTACAGCTGG)”, the “recombinant UMI read abundance (log10)” value is reported as 1.42. For “GCTACAGCATGGACCGGTTTTCCCGGTAATCCGTATTTGCC (site GCTACCGCTGG)”, the “recombinant UMI read abundance (log10)” value was 0. With “GCTACAGCATGGACCGGTTTTCCCGGTAATCCGTATTTGCC (site GCTACGGCTGG)” the “recombinant UMI read abundance (log10)” value was 0.477. In the case of “GCTACAGCATGGACCGGTTTTCCCGGTAATCCGTATTTGCC (site GCTACTGCTGG)”, the “recombinant UMI read abundance (log10)” value is reported as 0. With “GCTACCCCATGGACCGGTTTTCCCGGTAATCCGTATTTGGA (site GCTACCCCTTC)” the “recombinant UMI read abundance (log10)” value was 0.0342. With “GCTACCGCATGGACCGGTTTTCCCGGTAATCCGTATTTGCC (site GCTACAGCTGG)” the “recombinant UMI read abundance (log10)” value was 0. In the case of “GCTACCGCATGGACCGGTTTTCCCGGTAATCCGTATTTGCC (site GCTACCGCTGG)”, the “recombinant UMI read abundance (log10)” value is reported as 1.61. For “GCTACCGCATGGACCGGTTTTCCCGGTAATCCGTATTTGCC (site GCTACGGCTGG)”, the “recombinant UMI read abundance (log10)” value was 0. For “GCTACCGCATGGACCGGTTTTCCCGGTAATCCGTATTTGCC (site GCTACTGCTGG)”, the “recombinant UMI read abundance (log10)” value was 0. For “GCTACGTCATGGACCGGTTTTCCCGGTAATCCGTATTTGTT (site GATACGTCTAA)”, the “recombinant UMI read abundance (log10)” value was 0.00849. With “GCTACGTCATGGACCGGTTTTCCCGGTAATCCGTATTTGTT (site GCTACGTCTAA)” the “recombinant UMI read abundance (log10)” value was 0.808. In the case of “GCTACGTCATGGACCGGTTTTCCCGGTAATCCGTATTTGTT (site GGTACGTCTAA)”, the “recombinant UMI read abundance (log10)” value is reported as 0.0111. For “GCTACGTCATGGACCGGTTTTCCCGGTAATCCGTATTTGTT (site GTTACGTCTAA)”, the “recombinant UMI read abundance (log10)” value was 0.0153. With “GCTACTGCATGGACCGGTTTTCCCGGTAATCCGTATTTGCT (site GCTACTGCTAG)” the “recombinant UMI read abundance (log10)” value was 1.64. For “GCTACTGCATGGACCGGTTTTCCCGGTAATCCGTATTTGCT (site GCTACTGCTCG)”, the “recombinant UMI read abundance (log10)” value was 0.00284. For “GCTACTGCATGGACCGGTTTTCCCGGTAATCCGTATTTGCT (site GCTACTGCTGG)”, the “recombinant UMI read abundance (log10)” value was 0. With “GCTACTGCATGGACCGGTTTTCCCGGTAATCCGTATTTGCT (site GCTACTGCTTG)” the “recombinant UMI read abundance (log10)” value was 0. With “GCTAGTGCATGGACCGGTTTTCCCGGTAATCCGTATTTGGT (site ACTAGTGCTAC)” the “recombinant UMI read abundance (log10)” value was 1.31. With “GCTAGTGCATGGACCGGTTTTCCCGGTAATCCGTATTTGGT (site CCTAGTGCTAC)” the “recombinant UMI read abundance (log10)” value was 1.65. For “GCTAGTGCATGGACCGGTTTTCCCGGTAATCCGTATTTGGT (site GCTAGTGCTAC)”, the “recombinant UMI read abundance (log10)” value was 1.73. In the case of “GCTAGTGCATGGACCGGTTTTCCCGGTAATCCGTATTTGGT (site TCTAGTGCTAC)”, the “recombinant UMI read abundance (log10)” value is reported as 0.581. For “GCTATGGCATGGACCGGTTTTCCCGGTAATCCGTATTTGAA (site GCTATGGCTTT)”, the “recombinant UMI read abundance (log10)” value was 1.55. With “GCTCCAACATGGACCGGTTTTCCCGGTAATCCGTATTTGAA (site GCTCCAACTTT)” the “recombinant UMI read abundance (log10)” value was 0.939. For “GCTCCAACATGGACCGGTTTTCCCGGTAATCCGTATTTGTA (site GATCCAACTTA)”, the “recombinant UMI read abundance (log10)” value was 0.0429. For “GCTCCAACATGGACCGGTTTTCCCGGTAATCCGTATTTGTA (site GCTCCAACTTA)”, the “recombinant UMI read abundance (log10)” value was 0.877. With “GCTCCAACATGGACCGGTTTTCCCGGTAATCCGTATTTGTA (site GGTCCAACTTA)” the “recombinant UMI read abundance (log10)” value was 0.0155. With “GCTCCAACATGGACCGGTTTTCCCGGTAATCCGTATTTGTA (site GTTCCAACTTA)” the “recombinant UMI read abundance (log10)” value was 0.481. For “GCTCCGACATGGACCGGTTTTCCCGGTAATCCGTATTTGGA (site GCTCCGACTTC)”, the “recombinant UMI read abundance (log10)” value was 0.0323. For “GCTCGATCATGGACCGGTTTTCCCGGTAATCCGTATTTGGA (site GCTCGATCTTC)”, the “recombinant UMI read abundance (log10)” value was 1.99. With “GCTCGTCCATGGACCGGTTTTCCCGGTAATCCGTATTTGAG (site GCTCGTCCTCT)” the “recombinant UMI read abundance (log10)” value was 0.0111. For “GCTCGTTCATGGACCGGTTTTCCCGGTAATCCGTATTTGAT (site GCTCGTTCTAT)”, the “recombinant UMI read abundance (log10)” value was 1.25. With “GCTCTGTCATGGACCGGTTTTCCCGGTAATCCGTATTTGTT (site GCTCTGTCTAA)” the “recombinant UMI read abundance (log10)” value was 1.59. With “GCTGAATCATGGACCGGTTTTCCCGGTAATCCGTATTTGCA (site GCTGAATCTTG)” the “recombinant UMI read abundance (log10)” value was 1.83. In the case of “GCTGACGCATGGACCGGTTTTCCCGGTAATCCGTATTTGAT (site GCTGACGCTAT)”, the “recombinant UMI read abundance (log10)” value is reported as 1.53. With “GCTGCCTCATGGACCGGTTTTCCCGGTAATCCGTATTTGGT (site GCTGCCTCTAC)” the “recombinant UMI read abundance (log10)” value was 0.342. With “GCTGGTTCATGGACCGGTTTTCCCGGTAATCCGTATTTGTC (site GCTGGTTCTGA)” the “recombinant UMI read abundance (log10)” value was 0.00915. In the case of “GCTTATACATGGACCGGTTTTCCCGGTAATCCGTATTTGCT (site GCTTATACTAG)”, the “recombinant UMI read abundance (log10)” value is reported as 0. For “GCTTGCCCATGGACCGGTTTTCCCGGTAATCCGTATTTGAG (site GCTTGCCCTAT)”, the “recombinant UMI read abundance (log10)” value was 0.0201. In the case of “GCTTGCCCATGGACCGGTTTTCCCGGTAATCCGTATTTGAG (site GCTTGCCCTCT)”, the “recombinant UMI read abundance (log10)” value is reported as 0.0701. In the case of “GCTTGCCCATGGACCGGTTTTCCCGGTAATCCGTATTTGAG (site GCTTGCCCTGT)”, the “recombinant UMI read abundance (log10)” value is reported as 0. With “GCTTGCCCATGGACCGGTTTTCCCGGTAATCCGTATTTGAG (site GCTTGCCCTTT)” the “recombinant UMI read abundance (log10)” value was 0.107. For “GCTTGCCCATGGACCGGTTTTCCCGGTAATCCGTATTTGTT (site GCTTGCCCTAA)”, the “recombinant UMI read abundance (log10)” value was 0.0266. In the case of “GCTTGCCCATGGACCGGTTTTCCCGGTAATCCGTATTTGTT (site GCTTGCCCTAC)”, the “recombinant UMI read abundance (log10)” value is reported as 0.0939. With “GCTTGCCCATGGACCGGTTTTCCCGGTAATCCGTATTTGTT (site GCTTGCCCTAG)” the “recombinant UMI read abundance (log10)” value was 0. In the case of “GCTTGCCCATGGACCGGTTTTCCCGGTAATCCGTATTTGTT (site GCTTGCCCTAT)”, the “recombinant UMI read abundance (log10)” value is reported as 0.013. With “GCTTGGACATGGACCGGTTTTCCCGGTAATCCGTATTTGAC (site GATTGGACTGT)” the “recombinant UMI read abundance (log10)” value was 0. In the case of “GCTTGGACATGGACCGGTTTTCCCGGTAATCCGTATTTGAC (site GCTTGGACTGT)”, the “recombinant UMI read abundance (log10)” value is reported as 2.39. With “GCTTGGACATGGACCGGTTTTCCCGGTAATCCGTATTTGAC (site GGTTGGACTGT)” the “recombinant UMI read abundance (log10)” value was 0.132. With “GCTTGGACATGGACCGGTTTTCCCGGTAATCCGTATTTGAC (site GTTTGGACTGT)” the “recombinant UMI read abundance (log10)” value was 0.707. For “GCTTGGCCATGGACCGGTTTTCCCGGTAATCCGTATTTGAT (site GCTTGACCTAT)”, the “recombinant UMI read abundance (log10)” value was 0.00769. In the case of “GCTTGGCCATGGACCGGTTTTCCCGGTAATCCGTATTTGAT (site GCTTGCCCTAT)”, the “recombinant UMI read abundance (log10)” value is reported as 0.00795. In the case of “GCTTGGCCATGGACCGGTTTTCCCGGTAATCCGTATTTGAT (site GCTTGGCCTAT)”, the “recombinant UMI read abundance (log10)” value is reported as 0. For “GCTTGGCCATGGACCGGTTTTCCCGGTAATCCGTATTTGAT (site GCTTGTCCTAT)”, the “recombinant UMI read abundance (log10)” value was 0.00708. In the case of “GCTTGTACATGGACCGGTTTTCCCGGTAATCCGTATTTGGT (site GCTTGTACTAC)”, the “recombinant UMI read abundance (log10)” value is reported as 1.08. For “GCTTTAACATGGACCGGTTTTCCCGGTAATCCGTATTTGCT (site GCTTTAACTAG)”, the “recombinant UMI read abundance (log10)” value was 0.0522. In the case of “GCTTTCCCATGGACCGGTTTTCCCGGTAATCCGTATTTGAT (site GCTTACCCTAT)”, the “recombinant UMI read abundance (log10)” value is reported as 0. With “GCTTTCCCATGGACCGGTTTTCCCGGTAATCCGTATTTGAT (site GCTTCCCCTAT)” the “recombinant UMI read abundance (log10)” value was 0.00917. For “GCTTTCCCATGGACCGGTTTTCCCGGTAATCCGTATTTGAT (site GCTTGCCCTAT)”, the “recombinant UMI read abundance (log10)” value was 0.00235. In the case of “GCTTTCCCATGGACCGGTTTTCCCGGTAATCCGTATTTGAT (site GCTTTCCCTAT)”, the “recombinant UMI read abundance (log10)” value is reported as 0.343. For “GGAAACTCATGGACCGGTTTTCCCGGTAATCCGTATTTGTC (site GGAAACTCTGA)”, the “recombinant UMI read abundance (log10)” value was 2.42. In the case of “GGAAAGACATGGACCGGTTTTCCCGGTAATCCGTATTTGCC (site GGAAAGACTGG)”, the “recombinant UMI read abundance (log10)” value is reported as 1.64. In the case of “GGAAAGACATGGACCGGTTTTCCCGGTAATCCGTATTTGCC (site GGACAGACTGG)”, the “recombinant UMI read abundance (log10)” value is reported as 0. With “GGAAAGACATGGACCGGTTTTCCCGGTAATCCGTATTTGCC (site GGAGAGACTGG)” the “recombinant UMI read abundance (log10)” value was 0.347. For “GGAAAGACATGGACCGGTTTTCCCGGTAATCCGTATTTGCC (site GGATAGACTGG)”, the “recombinant UMI read abundance (log10)” value was 0. For “GGAAAGGCATGGACCGGTTTTCCCGGTAATCCGTATTTGCT (site AGAAAGGCTAG)”, the “recombinant UMI read abundance (log10)” value was 1.75. With “GGAAAGGCATGGACCGGTTTTCCCGGTAATCCGTATTTGCT (site CGAAAGGCTAG)” the “recombinant UMI read abundance (log10)” value was 1.06. In the case of “GGAAAGGCATGGACCGGTTTTCCCGGTAATCCGTATTTGCT (site GGAAAGGCTAG)”, the “recombinant UMI read abundance (log10)” value is reported as 2.39. In the case of “GGAAAGGCATGGACCGGTTTTCCCGGTAATCCGTATTTGCT (site TGAAAGGCTAG)”, the “recombinant UMI read abundance (log10)” value is reported as 1.25. In the case of “GGAACAGCATGGACCGGTTTTCCCGGTAATCCGTATTTGCC (site GGAACAGCTGG)”, the “recombinant UMI read abundance (log10)” value is reported as 3.09. In the case of “GGAACATCATGGACCGGTTTTCCCGGTAATCCGTATTTGCT (site CGATCATCTAG)”, the “recombinant UMI read abundance (log10)” value is reported as 0. In the case of “GGAACATCATGGACCGGTTTTCCCGGTAATCCGTATTTGCT (site GGAACATCTAG)”, the “recombinant UMI read abundance (log10)” value is reported as 2.03. In the case of “GGAACTTCATGGACCGGTTTTCCCGGTAATCCGTATTTGGC (site GGAACTTCTGC)”, the “recombinant UMI read abundance (log10)” value is reported as 1.94. In the case of “GGAAGATCATGGACCGGTTTTCCCGGTAATCCGTATTTGAA (site GGAAGATCTTT)”, the “recombinant UMI read abundance (log10)” value is reported as 2.06. With “GGACACCCATGGACCGGTTTTCCCGGTAATCCGTATTTGTT (site GGACACCCTAA)” the “recombinant UMI read abundance (log10)” value was 0.444.
